Measurements reported in US8604206B2, “Compositions for preventing and/or treating degenerative disorders of the central nervous system” (Amicus Therapeutics, Inc., priority 2009, dated 2013).

Key:
GCase [1] = molecular target: GCase (Homo sapiens (Human), UniProt P04062); experiment: GCase activity enhancement (EC50, Emax) of Table 2B; format: cell-based; details: for increase in GCase activity compared to IFG-tartrate: compared to reference compound IFG-tartrate
GCase [2] = molecular target: GCase (Mus musculus, UniProt P17439); experiment: GCase enhancement in tissues of orally dosed mice; format: in vivo; details: 9 doses over 2 weeks; for GCase increase (fold): 24-hour washout; for GCase enhancement in brain and spleen: mice, p.o.
Procedure: The ability of orally administered test compounds ((3R,4R,5S)-5-(difluoromethyl)piperidine-3,4-diol, (3R,4R,5S)-5-(1-fluoroethyl)piperidine-3,4-diol, (3R,4R,5S)-5-((R)-1-fluoropropyl)piperidine-3,4-diol hydrochloride, or (3R,4R,5S)-5-benzylpiperidine-3,4-diol) to elevate GCase levels was assessed in mice. For this purpose, 8-week old wild-type male mice (C57BL/6) were administered a […] p.o. (gavage) dose of a compound of the present invention (i.e., (3R,4R,5S)-5-(difluoromethyl)piperidine-3,4-diol, (3R,4R,5S)-5-(1-fluoroethyl)piperidine-3,4-diol, (3R,4R,5S)-5-((R)-1-fluoropropyl)piperidine-3,4-diol hydrochloride, or (3R,4R,5S)-5-benzylpiperidine-3,4-diol). The dosing solutions were prepared in water. Compounds were administered over 2 weeks as follows: week 1, Mon-Fri (On), Sat-Sun (Off); week 2, Mon-Thu (On); necropsy on Friday. Thus, a total of 9 doses (dosing solutions prepared fresh every day) were given to each mouse, with a 24-hour washout between the last dose and necropsy.
(§1) Plasma was collected by spinning blood at 2700 g for 10 minutes at 4° C. Liver, spleen, lung, and brain tissues were removed, washed in cold PBS, blotted dry, flash frozen on dry ice, and stored at −80° C. until analysis. GCase levels were measured by homogenizing approximately 50 mg tissue in 500 μL McIlvane (MI) buffer (100 mM sodium citrate, 200 mM sodium phosphate dibasic, 0.25% sodium taurocholate, and 0.1% Triton X-100, pH 5.2) at pH 5.2 for 3-5 seconds on ice with a micro homogenizer. Homogenates were then incubated at room temperature without and with 2.5 mM conduritol-B-epoxide (CBE) for 30 min. Finally, 3.7 mM 4-methylumbeliferryl-β-glucoside (4-MUG) substrate was added and incubated at 37° C. for 60 min. […] Fluorescence was measured on a plate reader for 1 sec/well using 355 nm excitation and 460 nm emission. Total protein was determined in lysates using the MicroBCA kit according to the manufacturer's instructions. A 4-methylumbelliferone (4-MU) standard curve ranging from 1.0 nM to 50 μM was run in parallel for conversion of raw fluorescence data to absolute GCase activity (in the presence and absence of CBE) and expressed as nanomoles of 4-MU released per milligram of protein per hour (nmol/mg protein/hr). GCase levels and protein levels were calculated using Microsoft Excel (Redmond, Wash.) and GraphPad Prism version 4.02.

[3] = Blood brain barrier penetration, plasma and brain levels after oral administration; format: in vivo, mouse; details: mice, single 30 mg/kg (free base equivalent) p.o.
Procedure: For this purpose, 8-week old wild-type male mice (C57BL/6) were administered a single 30 mg/kg (free base equivalent) p.o. dose of reference or test compound by gavage (n=3 mice per time point). Dosing solutions were prepared in water. After dosing, mice were euthanized with CO2 at the following time points: 0-, 0.5-, 1-, and 4-hour post-dose. […] Similarly, brains were collected from each mouse. Plasma was derived by spinning whole blood at 2,700×g for 10 minutes at 4° C. followed by storage on dry ice. Whole brains were washed in cold PBS to remove contaminating blood, blotted dry, flash frozen on dry ice, and ultimately stored at −80° C. until analysis. To prepare brain samples for analysis, 50-100 mg of tissue was homogenized in […] of water/mg tissue. Samples were then clarified by centrifugation. Next, 25 μl of the brain homogenate supernatant or 25 μl of plasma were combined with 25 μl of acetonitrile:water (95/5). […] Samples were again clarified by centrifugation and 75 μl of the supernatant was combined with 75 μl of acetonitrile. Samples were then analyzed for compound levels by LC-MS/MS at PPD Inc. (3230 Deming Way, Middleton, Wis. 53562). In brief, a Thermo Betasil, Silica-100, 50×3 mm, 5μ column equilibrated with a mixture of mobile phase consisting of 5 mM ammonium formate and 0.05% formic acid in (A) 95:5 acetonitrile:water or (B) 70:20:10 methanol:water:acetonitrile was employed. Between 20 and 30 μl sample was injected for analysis. For calculating drug concentrations, raw data for plasma (ng/mL) and brain (ng/g) was converted to nM using the molecular weight of respective compounds and assuming 1 g of tissue is equivalent to 1 mL volume. Concentration as a function of time was plotted in GraphPad Prism version 4.02.

lysosomal GCase = lysosomal GCase (Homo sapiens (Human), UniProt P04062); experiment: In situ lysosomal GCase inhibition and washout assay in fibroblasts from a normal subject; format: cell-based; details: for in situ washout from the lysosomal compartment compared to IFG-tartrate: compared to reference compound IFG-tartrate; for in situ washout: fibroblasts treated at IC90, then drug-free medium; for IC50: fibroblasts, 16-24 hours with compound, PFBFDβGlu substrate
Procedure: The effect of the novel compounds of the present invention on lysosomal GCase activity was assayed in situ using fibroblasts established from a normal subject. Cells seeded in 48-well plates were incubated with the indicated concentrations of compound for 16-24 hours. For the dose-response assays, cells were incubated with the in situ substrate 5-(pentafluorobenzoylamino)fluorescein di-β-D-glucopyranoside (PFBFDβGlu) for 1 hour and subsequently lysed to determine the extent of substrate hydrolysis in the presence of compound. […] Inhibition was determined as the ratio of activity in the presence of compound to that in the absence of compound. […] Cells were washed extensively and incubated in drug-free medium to allow net compound efflux from cells. Cells were then tested for lysosomal GCase activity at 2 hour intervals over a total period of 8 hours following compound removal. The increase in activity over time was fitted with a single exponential function to determine the compound's washout time.

[4] = Compound concentration in tissue of mice of the GCase enhancement study; format: in vivo, mouse; details: 9 doses, 24-hour washout
Procedure: The dosing solutions were prepared in water. Compounds were administered over 2 weeks as follows: week 1, Mon-Fri (On), Sat-Sun (Off); week 2, Mon-Thu (On); necropsy on Friday. Thus, a total of 9 doses (dosing solutions prepared fresh every day) were given to each mouse, with a 24-hour washout between the last dose and necropsy.
as §1

Sequence of GCase (Mus musculus, UniProt P17439) (P17439 20-515 limits assumed): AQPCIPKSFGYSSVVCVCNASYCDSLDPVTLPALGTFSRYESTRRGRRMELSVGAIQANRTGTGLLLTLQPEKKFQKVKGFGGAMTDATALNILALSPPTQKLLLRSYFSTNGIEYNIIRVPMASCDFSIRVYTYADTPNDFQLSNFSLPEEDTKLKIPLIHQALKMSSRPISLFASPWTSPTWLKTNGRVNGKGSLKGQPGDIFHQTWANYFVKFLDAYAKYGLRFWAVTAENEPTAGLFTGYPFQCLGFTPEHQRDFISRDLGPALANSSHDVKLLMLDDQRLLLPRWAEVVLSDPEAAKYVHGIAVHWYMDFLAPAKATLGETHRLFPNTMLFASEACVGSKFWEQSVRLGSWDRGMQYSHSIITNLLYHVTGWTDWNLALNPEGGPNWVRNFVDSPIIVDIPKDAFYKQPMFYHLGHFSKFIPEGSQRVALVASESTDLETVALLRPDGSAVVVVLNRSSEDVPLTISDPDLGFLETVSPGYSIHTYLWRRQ
Sequence of lysosomal GCase (P04062 40-536): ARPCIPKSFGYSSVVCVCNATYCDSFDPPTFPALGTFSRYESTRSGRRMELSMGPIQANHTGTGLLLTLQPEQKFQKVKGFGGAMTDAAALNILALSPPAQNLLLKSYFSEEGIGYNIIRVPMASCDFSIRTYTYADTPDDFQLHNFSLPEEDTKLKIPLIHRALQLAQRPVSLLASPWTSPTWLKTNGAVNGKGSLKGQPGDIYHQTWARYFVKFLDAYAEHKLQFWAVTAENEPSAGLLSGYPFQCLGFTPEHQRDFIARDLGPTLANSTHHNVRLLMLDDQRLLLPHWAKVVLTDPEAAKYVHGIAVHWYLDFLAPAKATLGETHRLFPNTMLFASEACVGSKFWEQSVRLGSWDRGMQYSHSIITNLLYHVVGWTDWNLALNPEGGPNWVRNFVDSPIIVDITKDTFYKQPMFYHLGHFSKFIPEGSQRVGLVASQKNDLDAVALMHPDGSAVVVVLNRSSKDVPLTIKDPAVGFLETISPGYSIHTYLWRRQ
Sequence of GCase (Homo sapiens (Human), UniProt P04062) (P04062 40-536): as above

Compound	EC50 (GCase [1]) [nM]	increase in GCase activity compared to IFG-tartrate (GCase [1])	GCase increase (fold) (GCase [2]; brain, 10 mg/kg FBE p.o.)	GCase increase (fold) (GCase [2]; brain, 100 mg/kg FBE p.o.)	GCase enhancement in brain and spleen (GCase [2])	GCase increase (fold) (GCase [2]; spleen, 10 mg/kg FBE p.o.)	GCase increase (fold) (GCase [2]; spleen, 100 mg/kg FBE p.o.)	blood brain barrier crossing compared to IFG-tartrate [3]	levels detected in brain compared to IFG-tartrate [3]	inhibition of GCase activity (lysosomal GCase)	in situ washout from the lysosomal compartment compared to IFG-tartrate (lysosomal GCase)	in situ washout (lysosomal GCase) [h]	IC50 (lysosomal GCase) [nM]	Compound concentration in tissue ([4]; brain, 10 mg/kg FBE p.o.)	Compound concentration in tissue ([4]; brain, 100 mg/kg FBE p.o.) [nmol/kg]	Compound concentration in tissue ([4]; spleen, 10 mg/kg FBE p.o.) [nmol/kg]	Compound concentration in tissue ([4]; spleen, 100 mg/kg FBE p.o.) [nmol/kg]
O[C@@H]1[C@@H](Cc2ccccc2)CNC[C@H]1O [(3R,4R,5S)-5-benzyl-piperidine-3,4-diol]	180 ± 10	enhanced enzyme activity to the same maximum level as reference compound IFG-tartrate at much lower concentration	1.2	1.4	significant GCase enhancement in brain and spleen	1.0	1.2	crossed the blood brain barrier more readily as compared to IFG-tartrate	higher levels	inhibited GCase activity	considerably faster than reference compound IFG-tartrate	1.2 ± 0.13	1300 ± 323	–	–	–	–
Cl.O[C@H]1[C@H](O)CNC[C@@H]1C(F)F [Cmpd 6, (3R,4R,5S)-5-(Difluoromethyl)piperidine 3,4-diol Hydrochloride]	–	enhanced enzyme activity to the same maximum level as reference compound IFG-tartrate at much lower concentration	–	–	significant GCase enhancement in brain and spleen	–	–	crossed the blood brain barrier more readily as compared to IFG-tartrate	higher levels	inhibited GCase activity	considerably faster than reference compound IFG-tartrate	2.1 ± 0.30	–	55 nmol/kg	301	100	435
CC[C@@H](F)[C@H]1CNC[C@@H](O)[C@@H]1O.Cl [(3R,4R,5S)-5-((R)-1-fluoropropyl)-piperidine-3,4-diol hydrochloride]	86 ± 2	enhanced enzyme activity to the same maximum level as reference compound IFG-tartrate at much lower concentration	0.9	1.1	–	0.7	0.7	crossed the blood brain barrier more readily as compared to IFG-tartrate	higher levels	inhibited GCase activity	–	–	972 ± 201	BLQ(2) (BLQ < 2.2 nmol/kg)	38	21	60
